Experimental data: patent publication US20250122217A1, “ANHYDROUS CRYSTALLINE FORMS OF 2-((4S)-6-(4-CHLOROPHENYL)-1-METHYL-4H-BENZO[C]ISOXAZOLO[4,5-E]AZEPIN-4-YL)ACETAMIDE” (CONSTELLATION PHARMACEUTICALS. INC., priority 2022, published 2025)

Assays:
[1] = Competitive slurry experiments of crystalline forms, XRD readout; type: physicochemical; settings: for water activities at which the form is thermodynamically stable: conclusion from the competitive slurries of Table 3; for XRD result of competitive slurry: about 5-7 days
Method: The following competitive slurry experiments were performed using inventive anhydrous Form B and monohydrate Form A disclosed in U.S. Pat. No. 9,969,747.
Aqueous mixtures were created and tested in duplicate for water activity at ambient temperature. Amorphous Pelabresib was used to create a saturated solution in the respective solvent. The supernatant was added to solids of monohydrate Form A and anhydrous Form B and allowed to stir at the respective temperature for about 5-7 days. In all samples except for the butanol:water mixture, a small quantity of Form C was also added to the competitive slurry. Form C can be prepared by slurring amorphous pelabresib in water:ethanol (90:10) for about 5 days The results of the competitive slurries are shown below in Table 3.

in vivo = assay: in vivo; parameters: species or system beagle dogs; settings: male, beagle, dog, po, 5 mg/kg
Method: Single dose PK parameters in plasma were determined following oral gavage administration of micronized anhydrous Form B at 5 mg/kg to male beagle dogs (n=6/Group) in 0.5% (w/v) aqueous Methocel (4000 cps). The dose volume of PO groups was 2 mL/kg. For intravenous (0.5 mg/kg) and oral gavage (5 mg/kg), plasma samples were collected at the following time points: 0, 0.25, 0.5, 1, 2, 4, 6, 8, 12, 24 h post dose and analyzed. […] (5 mg/kg, 2.5 mg/mL, suspension).

[2] = Dynamic vapor sorption (DVS); type: physicochemical

water activities at which the form is thermodynamically stable [1]	AUC(0-t) (in vivo)	Cmax (in vivo)	Tmax (in vivo)	hygroscopicity by DVS ([2]; DVS profile, FIG. 3)	weight gain (DVS) ([2]; at 95% RH)	XRD result of competitive slurry ([1]; Form A + Form B (no Form C), 2-butanol:water (95:5), water activity 0.72, 40° C.)	XRD result of competitive slurry ([1]; Form A + Form B (no Form C), 2-butanol:water (95:5), water activity 0.72, RT)	XRD result of competitive slurry ([1]; Form A + Form B + small quantity of Form C, EtOH:water (90:10), water activity 0.54, 40° C.)	XRD result of competitive slurry ([1]; Form A + Form B + small quantity of Form C, EtOH:water (90:10), water activity 0.54, RT)	XRD result of competitive slurry ([1]; Form A + Form B + small quantity of Form C, IPA:water (98:2), water activity 0.27, 40° C.)	XRD result of competitive slurry ([1]; Form A + Form B + small quantity of Form C, IPA:water (98:2), water activity 0.27, RT)	XRD result of competitive slurry ([1]; Form A + Form B + small quantity of Form C, THF:water (10:90), water activity 0.97, 40° C.)	XRD result of competitive slurry ([1]; Form A + Form B + small quantity of Form C, THF:water (10:90), water activity 0.97, RT)	SMILES
≥ 97%	–	–	–	–	–	–	–	–	–	–	–	–	–	Cc1noc2c1-c1ccccc1C(c1ccc(Cl)cc1)=N[C@H]2CC(N)=O (single isomer, unassigned) [Form A, reference compound]
≤ 72%	12100 ± 1450 ng·h/mL	1750 ± 225 ng/mL	1.17 ± 0.41 h	non-hygroscopic	about 0.5%	–	–	–	–	–	–	–	–	Cc1noc2c1-c1ccccc1C(c1ccc(Cl)cc1)=N[C@H]2CC(N)=O (single isomer, unassigned) [Form B]
–	–	–	–	–	–	Form B	Form B	Form B	Form B	Form B + small peak	Form B	Form A	Form C	Cc1noc2c1-c1ccccc1C(c1ccc(Cl)cc1)=N[C@H]2CC(N)=O [Pelabresib, 2-((4S)-6-(4-chlorophenyl)-1-methyl-4H-benzo[c]isoxazolo[4,5-e]azepin-4-yl)acetamide]
